# Laboratory results published in patent US12221625B2, “Method for producing retinal pigment epithelial cells” (SUMITOMO PHARMA CO., LTD., priority 2015, dated 2025).
# Legend:
# [1] = test system: human iPS cells (QHJI01 line and 1231A3 line); assay: MEK inhibitors PD184352, U0126, TAK-733, AZD-8330 in first step (Example 10); format: cell-based; conditions: 6 days; 1 μM PD0325901; 1.5, 3, 6 μM PD184352; 5, 10 μM U0126; 0.3 μM TAK-733; 0.3 μM AZD-8330; day 49 and day 50 of culture
# From the text: The medium used was “STEMFIT™” AK03N medium (Ajinomoto Co., Inc.) (hereinafter AK03N medium).
# [2] = test system: human iPS cells (QHJI01 line); assay: Differentiation induction effect of Nodal or Wnt signal transduction pathway inhibitor alone in second step (Example 12); format: cell-based; conditions: second step day 1 to day 12 with 5 μM SB-431542 and/or 3 μM CKI-7, after first step with 1 μM PD0325901 for 6 days; day 43 of culture
# From the text: (§1) 2014 Jan. 8; 4: 3594”. The medium used was “STEMFIT™” AK03N medium (Ajinomoto Co., Inc.) (hereinafter AK03N medium).
# In the second step, the following 3 kinds of media were used.
# [3] = test system: human iPS cells (201B7 line and 1231A3 line); assay: Production of RPE cells from human iPS cells including FGF receptor inhibitor treatment step (Example 2); format: cell-based; conditions: PD173074 100 nM
# From the text: In one embodiment, to study the effect of the FGF receptor inhibitor in a medium free of a factor for maintaining undifferentiated state (bFGF), StemSure hPSC Medium Δ (Wako Pure Chemical Industries, Ltd.) (hereinafter StemSure hPSC Medium Δ w/o bFGF) not added with bFGF was used.
# [4] = test system: human iPS cells (201B7 line and 1231A3 line); assay: Production of RPE cells including combined treatment step of MEK inhibitor and/or FGF receptor inhibitor and various inhibitors or agonist (Example 3); format: cell-based; conditions: first step 6 days in AK03 medium; observed 38 to 47 days of culture; FIG. 7
# Procedure: (§2) The medium used was “STEMFIT™” AK03 medium (Ajinomoto Co., Inc.) (hereinafter AK03 medium).
# Production of retinal pigment epithelial (RPE) cells including a combined treatment step of MEK inhibitor and/or FGF receptor inhibitor, and various inhibitors, signal transduction pathway inhibitor or signal transduction pathway agonist was performed as follows. iPS cells under culture for maintaining undifferentiated state were treated with 0.5×TrypLE select, dissociated using a cell scraper, dispersed to single cells by pipetting, seeded in a 6-well culture plate coated with iMatrix-511 (Nippi) (0.5 μg/cm^2) at 1.2×10^4 cells per 1 well and cultured in a ROCK inhibitor [10 μM Y-27632 (Wako Pure Chemical Industries, Ltd.)]-containing AK03 medium under 37° C., 5% CO2 conditions. The next day of cell seeding, PD0325901 (SIGMA) (final concentration 1 μM) as an MEK inhibitor, PD173074 (SIGMA) (final concentration 100 nM) as an FGF receptor inhibitor, LDN193189 (STEMGENT) (final concentration 100 nM) as a BMP receptor inhibitor, SAG (Enzo Life Sciences) (final concentration 30 nM) as an Shh signal transduction pathway agonist, and Go6983 (SIGMA) (final concentration 2 μM) as a PKC inhibitor in the combination shown in FIG. 7 were added to the medium (start of the first step) and the cells were exposed thereto for 6 days (completion of the first step). […]
# [5] = test system: human iPS cells (Ff-I01 line and QHJI01 line); assay: Production of RPE cells including MEK inhibitor or FGF receptor inhibitor treatment step using iPS cells Ff-I01, QHJI01 (Example 4); format: cell-based; conditions: PD0325901 1 μM or PD173074 100 nM, 6 days, AK03N medium; day 43 of culture; both Ff-I01 and QHJI01 lines
# From the text: as §1
# [6] = test system: human iPS cells (QHJI01 line); assay: Number of days of exposure of each inhibitor in first step (Example 5); format: cell-based; conditions: day 48 of culture; for brown-black cell population: 4 days-6 days of exposure; for proportion of cells that developed color in the whole well versus number of exposure days: exposure 1 day to 6 days; for brown-black cell populations: exposure for not less than 2 days, PD0325901 1 μM or PD173074 100 nM
# From the text: as §1
# [7] = test system: human iPS cells (QHJI01 line); assay: Inhibitor concentrations in MEK inhibitor or FGF receptor inhibitor treatment step (Example 8); format: cell-based; conditions: 6 days, day 36 and day 49 of culture
# From the text: as §1
# [8] = test system: human iPS cells (QHJI01 line); assay: Seeded cell number in transition of first step to second step (Example 9); format: cell-based; conditions: all seeded cell number (0.2, 0.4, 0.6, 1.0, 2.0, or 4.0×10^4 cells/cm^2) at start of second step; PD0325901 1 μM or PD173074 100 nM, 6 days; day 49 of culture
# From the text: as §1
# [9] = test system: human iPS cells (QHJI01 line and 1231A3 line); assay: FGF receptor inhibitor SU5402 in first step (Example 11); format: cell-based; conditions: 6 days; 100 nM PD173074; 5, 10, 20 μM SU5402; day 49 of culture
# From the text: as §1
# [10] = test system: human iPS cells (1231A3 line); assay: Production of RPE cells including MEK inhibitor or FGF receptor inhibitor treatment step, plate observation (Example 14); format: cell-based; conditions: PD0325901 1 μM or PD173074 100 nM, 6 days; day 43 of culture
# From the text: as §1
# [11] = test system: RPE65, BEST1, CRALBP; assay: RT-PCR of retinal pigment epithelial cell markers in produced RPE cells (Example 14); format: cell-based, human; conditions: PD0325901 1 μM or PD173074 100 nM, 6 days; cells collected day 43 of culture
# Procedure: After observation on day 43 of culture, the cells were collected, RNA was extracted and RT-PCR was performed. RNeasy Micro Kit (QIAGEN) was used for RNA extraction, Oligo (dT)12-18 Primer (Invitrogen) and SuperScript III Reverse Transcriptase (Invitrogen) were used for reverse transcription reaction, and Blend Taq-Plus- (TOYOBO) was used for PCR. The primer sequences of RPE65, BEST1, CRLBP, GAPDH are as described below. […] NO: 1), […] NO: 2), […] NO: 3), […] NO: 4), CRALBP-[…] NO: 5), CRALBP-[…] NO: 6), […] NO: 7), […] NO: 8). The number of cycles of the PCR reaction was 30 cycles for RPE65, BEST1, GAPDH, and 35 cycles for CRALBP. PCR products were detected as a single band by agarose gel electrophoresis at near 369 bp for RPE65, near 261 bp for BEST1, near 341 bp for CRALBP, and near 452 bp for GAPDH. As a positive control, primary human RPE (hRPE) was used and, as a negative control, iPS cells (undifferentiated iPSC) cultured under conditions for maintaining undifferentiated state were used.
# [12] = test system: human iPS cells (201B7 line and 1231A3 line); assay: Production of RPE cells from human iPS cells including MEK inhibitor treatment step (Example 1); format: cell-based
# Procedure: The medium used was “STEMFIT™” AK03 medium (Ajinomoto Co., Inc.) (hereinafter AK03 medium) or Essential 8 medium (Life Technologies).
# Production of retinal pigment epithelial (RPE) cells including an MEK inhibitor treatment step was performed as follows. iPS cells under culture for maintaining undifferentiated state were treated with 0.5×TrypLE select (mixture of equal amounts of TrypLE select (Life Technologies)) and 0.5 mM EDTA/PBS(−)), dissociated using a cell scraper, dispersed to single cells by pipetting, seeded in a 6-well culture plate coated with iMatrix-511 (Nippi) (0.5 μg/cm^2) at 1.2×10^4 cells per 1 well, and cultured in an AK03 medium or Essential 8 medium containing a ROCK inhibitor [10 μM Y-27632 (Wako Pure Chemical Industries, Ltd.)] under 37° C., 5% CO2 conditions. On the next day of seeding, PD0325901 (SIGMA) as an MEK inhibitor was added to the AK03 medium at a final concentration of 1 μM or Essential 8 medium at a final concentration of 0.03 μM (start of the first step) and the cells were exposed thereto for 6 days (completion of the first step). […]
# [13] = test system: human iPS cells (1231A3 line); assay: MEK inhibitor exposure period in MEK inhibitor treatment step (Example 6); format: cell-based; conditions: PD0325901 1 μM, day 37 of culture
# Procedure: as §2
# Production of retinal pigment epithelial (RPE) cells including an MEK inhibitor treatment step was performed as follows. iPS cells under culture for maintaining undifferentiated state were treated with 0.5×TrypLE select (mixture of equal amounts of TrypLE select (Life Technologies) and 0.5 mM EDTA/PBS(−)), dissociated using a cell scraper, dispersed to single cells by pipetting, seeded in a 6-well culture plate coated with iMatrix-511 (Nippi) (0.5 μg/cm^2) at 1.2×10^4 cells per 1 well and cultured in a ROCK inhibitor [10 μM Y-27632 (Wako Pure Chemical Industries, Ltd.)]-containing AK03 medium under 37° C., 5% CO2 conditions. On the next day of seeding, 4 days later or 6 days later, PD0325901 (SIGMA) (final concentration 1 μM) as an MEK inhibitor was added to the AK03 medium (start of the first step) and the cells were exposed thereto for 6 days, 3 days or 1 day (completion of the first step). In addition, cells exposed to MEK inhibitor for 6 days were treated with 0.5×TrypLE select, dissociated using a cell scraper, dispersed to single cells by pipetting, seeded in a 6-well culture plate coated with iMatrix-511 (Nippi) (0.5 μg/cm^2) at 0.8×10^4 cells per 1 well and further cultured for 7 days in AK03 medium containing Y-27632 (final concentration 10 μM) and PD0325901 (final concentration 1 μM) under 37° C., 5% CO2 conditions, whereby the cells were exposed to the MEK inhibitor for 13 days (completion of the first step). Thereafter, the cells were treated with 0.5×TrypLE select, dissociated using a cell scraper, dispersed to single cells by pipetting, seeded in a 6-well culture plate coated with iMatrix-511 (0.5 μg/cm^2) at 1.2×10^6 cells per 1 well and cultured under 37° C., 5% CO2 conditions (start of the second step). […]
smiles,measurement,setting,value
"Cc1cc(C(=O)NOCCO)c(Nc2ccc(I)cc2F)n(C)c1=O [AZD-8330, 2-(2-fluoro-4-iodophenylamino)-N-(2-hydroxyethoxy)-1,5-dimethyl-6-oxo-1,6-dihydropyridine-3-carboxamide]",emergence of brown-black cell population,[1],emergence of a brown-black cell population could be confirmed over a wide area
"NC(=O)c1ccc(-c2nc(-c3ccc4c(c3)OCO4)c(-c3ccccn3)[nH]2)cc1 [NODALi, 4-[4-(1,3-Benzodioxol-5-yl)-5-(pyridin-2-yl)-1H-imidazol-2-yl]benzamide]",emergence of cells showing typical characteristics of RPE cell,[2],"emergence of cells showing the same level of typical characteristics of RPE cell such as a brown-black, polygonal, cobblestone-like morphology could be confirmed"
"CCN(CC)CCCCNc1ncc2cc(-c3cc(OC)cc(OC)c3)c(NC(=O)NC(C)(C)C)nc2n1 [PD173074, N-[2-[[4-(Diethylamino)butyl]amino]-6-(3,5-dimethoxyphenyl)pyrido[2,3-d]pyrimidin-7-yl]-N′-(1,1-dimethylethyl)urea]",cell morphology by microscopic observation,"[3]; 6 days first step, 201B7, FIG. 5","the cells showed typical characteristics of RPE cell such as a brown-black, polygonal, cobblestone-like morphology"
same,emergence of brown-black cell population on culture plate,"[3]; 6 days, AK03 medium, Essential 8 medium or StemSure hPSC Medium Δ w/o bFGF, observed 38 to 42 days, 201B7 line and/or 1231A3 line",emergence of a brown-black cell population could be confirmed over a wide area
same,emergence of RPE cells showing typical characteristics,[4],"emergence of RPE cells showing typical characteristics of RPE cell such as a brown-black, polygonal, cobblestone-like morphology could be confirmed"
same,emergence of brown-black cell population on culture plate,[5],emergence of a brown-black cell population could be confirmed over a wide area
same,brown-black cell population,[6],a remarkable increase in the brown-black cell population was seen
same,proportion of cells that developed color in the whole well versus number of exposure days,[6],the proportion of cells that developed color in the whole well increased as the number of exposure day increased up to 6 days of exposure
same,brown-black cell populations,[6],brown-black cell populations increased
same,emergence of brown-black cell population,[7]; all FGF receptor inhibitor concentrations (25-400 nM),emergence of a brown-black cell population could be confirmed over a wide area
same,emergence of brown-black cell population,[8],emergence of a brown-black cell population could be confirmed over a wide area
same,emergence of brown-black cell population,[9],emergence of a brown-black cell population could be confirmed over a wide area
same,emergence of brown-black cell population,[10],emergence of a brown-black cell population could be confirmed over a wide area
same,"bands of retinal pigment epithelial cell markers RPE65, BEST1, CRALBP by RT-PCR",[11],clear bands could be confirmed
O=C(NOCC1CC1)c1ccc(F)c(F)c1Nc1ccc(I)cc1Cl [PD184352],emergence of brown-black cell population,[1],emergence of a brown-black cell population could be confirmed over a wide area
"O=C(NOC[C@H](O)CO)c1ccc(F)c(F)c1Nc1ccc(I)cc1F [PD0325901, N-[(2R)-2,3-Dihydroxypropoxy]-3,4-difluoro-2-[(2-fluoro-4-iodophenyl)amino]-benzamide]",emergence of brown-black cell population on culture plate,"[12]; PD0325901 1 μM in AK03 medium or 0.03 μM in Essential 8 medium, exposed 6 days, observed 38 to 42 days of culture, both 201B7 and 1231A3 lines",emergence of a brown-black cell population could be confirmed over a wide area
same,cell morphology by microscopic observation,"[12]; PD0325901 1 μM, 6 days first step, 201B7, FIG. 2","the cells showed typical characteristics of RPE cell such as a brown-black, polygonal, cobblestone-like morphology"
same,emergence of RPE cells showing typical characteristics,[4],"emergence of RPE cells showing typical characteristics of RPE cell such as a brown-black, polygonal, cobblestone-like morphology could be confirmed"
same,emergence of brown-black cell population on culture plate,[5],emergence of a brown-black cell population could be confirmed over a wide area
same,brown-black cell population,[6],a remarkable increase in the brown-black cell population was seen
same,proportion of cells that developed color in the whole well versus number of exposure days,[6],the proportion of cells that developed color in the whole well increased as the number of exposure day increased up to 6 days of exposure
same,brown-black cell populations,[6],brown-black cell populations increased
same,emergence of brown-black cell population,[13]; exposure for 3 days,emergence of a brown-black cell population could be confirmed over a wide area
same,emergence of brown-black cell population,[13]; exposure for 6 days,emergence of a brown-black cell population could be confirmed over a wide area
same,emergence of colored cell population,[13]; exposure for 13 days,sufficient emergence of colored cell population was also confirmed
same,cells showing typical characteristics of RPE cell,[13]; exposure for one day,almost no cell that showed typical characteristics of RPE cell
same,emergence of brown-black cell population,[7]; all MEK inhibitor concentrations (0.25-4 μM),emergence of a brown-black cell population could be confirmed over a wide area
same,emergence of brown-black cell population,[8],emergence of a brown-black cell population could be confirmed over a wide area
same,emergence of brown-black cell population,[1],emergence of a brown-black cell population could be confirmed over a wide area
same,emergence of brown-black cell population,[10],emergence of a brown-black cell population could be confirmed over a wide area
same,"bands of retinal pigment epithelial cell markers RPE65, BEST1, CRALBP by RT-PCR",[11],clear bands could be confirmed
"Cc1c[nH]c(C=C2C(=O)Nc3ccccc32)c1CCC(=O)O [SU5402, 2-[(1,2-Dihydro-2-oxo-3H-indol-3-ylidene)methyl]-4-methyl-1H-pyrrole-3-propanoic acid]",emergence of brown-black cell population,[9],emergence of a brown-black cell population could be confirmed over a wide area
"Cn1c(=O)c(F)c(Nc2ccc(I)cc2F)c2c(=O)n(C[C@@H](O)CO)cnc21 [TAK-733, (R)-3-(2,3-dihydroxypropyl)-6-fluoro-5-(2-fluoro-4-iodophenylamino)-8-methylpyrido[2,3-d]pyrimidine-4,7(3H, 8H)-dione]",emergence of brown-black cell population,[1],emergence of a brown-black cell population could be confirmed over a wide area
"N#CC(=C(N)Sc1ccccc1N)C(C#N)=C(N)Sc1ccccc1N [U0126, 1,4-Diamino-2,3-dicyano-1,4-bis[2-aminophenylthio]butadiene]",emergence of brown-black cell population,[1],emergence of a brown-black cell population could be confirmed over a wide area
"NCCNS(=O)(=O)c1ccc(Cl)c2ccncc12 [WNTi, N-(2-Aminoethyl)-5-chloroisoquinoline-8-sulfonamide]",emergence of cells showing typical characteristics of RPE cell,[2],"the brown-black area in the whole well decreased; however, emergence of a sufficient number of cells showing the typical characteristics of RPE cell could be confirmed"
